According to PubChem BioAssay (NCI):
“And” between values parts separate entries of the source, which are not always exact repeats. Identical values can stand only once.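 Interpolation was linear, between the two tested concentrations surrounding the appropriate level; five concentrations were tested over 48 hours in 96-well plates. GI50 marks 50% less growth. At the TGI there is no net growth.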

Tests used:
Experiment in all cases: NCI anticancer screen, dose series, 48 h
NCI-H460 lung = tested on: NCI-H460 lung
UACC-62 melanoma = tested on: UACC-62 melanoma
KM20L2 colon = tested on: KM20L2 colon
DLD-1 colon = tested on: DLD-1 colon
M19-MEL melanoma = tested on: M19-MEL melanoma
RPMI-8226 leukemia = tested on: RPMI-8226 leukemia
EKVX NSCLC = tested on: EKVX NSCLC
SN12C renal = tested on: SN12C renal
A498 renal = tested on: A498 renal
NCI-H226 lung = tested on: NCI-H226 lung

Compound | TGI (NCI-H460 lung) [µM] | TGI (UACC-62 melanoma) | TGI (KM20L2 colon) [µM] | TGI (DLD-1 colon) [µM] | TGI (M19-MEL melanoma) [µM] | TGI (RPMI-8226 leukemia) [µM] | TGI (EKVX NSCLC) [µM] | TGI (SN12C renal) | GI50 (NCI-H460 lung) [µM] | GI50 (UACC-62 melanoma) | GI50 (KM20L2 colon) [µM] | GI50 (A498 renal) | TGI (A498 renal) | GI50 (DLD-1 colon) [µM] | GI50 (RPMI-8226 leukemia) [µM] | GI50 (EKVX NSCLC) | GI50 (SN12C renal) [µM] | TGI (NCI-H226 lung) [µM] | GI50 (NCI-H226 lung) [µM] | GI50 (M19-MEL melanoma) [µM]
CCN(CC)c1ccc(N=C2C=C(Cl)C(=O)c3ncccc32)c(C)c1 | 39 | 24.7 µM | 26.9 | 17 | 68.5 | 90.3 | 36.8 | 55.1 µM | – | – | – | – | – | – | – | – | – | – | – | –
CC(C)C(=O)[O-].CC(C)C(=O)[O-].N.N.N.N.[Co+3].[O-][Cl+3]([O-])([O-])[O-] | > 100 | > 100 µM | > 100 | > 100 | – | > 100 | > 100 | > 100 µM | > 100 | > 100 µM | > 100 | > 100 µM | > 100 µM | > 100 | > 100 | > 100 µM | > 100 | – | – | –
CCOC(=O)c1ccc(N2C(=O)Cc3ccccc3C2=O)cc1 | – | > 100 µM | > 100 | – | > 100 | > 100 | > 100 | > 100 µM | – | – | – | – | – | – | – | – | – | > 100 | – | –
CC(C)CC12CC3CCC(CNC1=O)C32C (configuration not stated) | > 100 | > 100 µM | – | > 100 | > 100 | > 100 | > 100 | > 100 µM | – | – | – | – | > 100 µM | – | – | – | – | > 100 | – | –
CC(=O)/C=C1\CC(=O)Nc2ccccc2N1 | > 100 | > 100 µM | > 100 | > 100 | – | > 100 | > 100 | > 100 µM | – | – | – | – | > 100 µM | – | – | – | – | > 100 | – | –
OCC(O)C(O)C(O)c1nn(-c2ccccc2)c2nc3cc(Cl)c(Cl)cc3nc12 (configuration not stated) | > 100 | > 100 µM | > 100 | > 100 | > 100 | > 100 | > 100 | > 100 µM | – | – | – | – | – | – | – | – | – | > 100 | – | –
Cc1ncc(C(=O)Nc2ccc(CN3CCN(C)CC3)c(C(F)(F)F)c2)cc1C#Cc1c(N)ncc2ccccc12 | 0.952 | 0.781 µM | – | – | – | 1.26 | 0.906 | 0.783 µM | 0.447 | 0.246 µM | – | 0.485 µM | 0.939 µM | – | 0.396 | 0.458 µM | 0.319 | 1.04 | 0.393 | –
CCOc1nccc2c1nc(-c1nonc1N)n2CC | > 25 | > 25 µM | – | – | – | > 25 | > 25 | > 25 µM | > 25 | > 25 µM | – | 24.5 µM | > 25 µM | – | > 25 | > 25 µM | > 25 | > 25 | > 23.1 | –
Cn1cnc2c(F)c(Nc3ccc(Br)cc3F)c(C(=O)NOCCO)cc21 | > 100 | 0.228 µM and 0.664 µM | – | – | – | > 100 | > 100 | > 100 µM | > 100 | 0.0174 µM and 0.0234 µM | – | 0.0184 µM and 0.0314 µM | 0.275 µM and 0.394 µM | – | > 56.4 | 0.109 µM and 0.503 µM | 13.7 | > 100 | – | –
C=C1C(OC/C=C/COC2O[C@@H]3O[C@@]4(C)CC[C@H]5[C@H](C)CC[C@@H](C2=C)[C@@]35OO4)O[C@@H]2O[C@@]3(C)CC[C@H]4[C@H](C)CC[C@@H]1[C@@]24OO3 (some centres not stated) | 27.2 | 69.1 µM | – | – | – | 10.6 | 31.9 | 46.5 µM | 5.18 | 2.01 µM | – | 26 µM | > 100 µM | – | – | 11.5 µM | 1.33 | 33.5 | 4.32 | –
O=C1C(=O)N(c2nccs2)C(=O)C(=O)C1c1nc2ccccc2s1 | > 100 | > 100 µM | > 100 | > 100 | > 100 | > 100 | > 100 | > 100 µM | – | – | – | – | – | – | – | – | – | > 100 | – | –
COc1cc(F)c(/C=C/c2cc(/C=C/c3cc(OC)c(OC)cc3F)n(-c3cc(F)cc(F)c3)n2)cc1OC | 12.2 | 3.32 µM | – | – | – | 41.4 | 55.9 | 4.42 µM | 3.43 | 1.65 µM | – | 14.5 µM | 28.8 µM | – | 3.75 | 4.94 µM | 2.04 | 43.6 | 14.8 | –
NCc1c(C(N)=O)ncn1Cc1ccccc1 | > 100 | > 100 µM | > 100 | – | > 100 | > 100 | > 100 | > 100 µM | – | – | – | – | > 100 µM | – | – | – | – | – | – | –
COc1ccc2c(CCNC(=O)/C=C/c3ccccc3)c(C(C)=O)[nH]c2c1[N+](=O)[O-] | > 100 | 36.1 µM | > 100 | – | – | > 100 | – | > 100 µM | – | – | – | – | 76.5 µM | – | – | – | – | 46.7 | – | –
Nc1cc(S(N)(=O)=O)ccc1SSc1ccc(S(N)(=O)=O)cc1N | > 100 | > 100 µM | – | – | – | > 100 | > 100 | > 100 µM | – | – | – | – | > 100 µM | – | – | – | – | > 100 | – | –
CC(NC(=O)C(=O)N/N=C1\C[C@@H](c2ccccc2)Nc2ccccc21)c1ccccc1 (some centres not stated) | > 100 | – | > 100 | > 100 | > 100 | – | > 100 | > 100 µM | – | – | – | – | – | – | – | – | – | > 100 | – | –
Cc1cnccc1N=Nc1ccc(N(C)C)cc1 | > 100 | 40.7 µM | – | – | – | 48.3 | 32.9 | 72.6 µM | – | – | – | – | 94.1 µM | – | – | – | – | 29.1 | – | –
N#Cc1ccc(Oc2cccc(Oc3ccccc3)c2)cc1C#N | > 100 | > 100 µM | > 100 | > 100 | > 100 | – | > 100 | > 100 µM | – | > 100 µM | > 100 | – | > 100 µM | > 100 | – | – | > 100 | – | – | > 100
CC(C)C[C@H](NC(=O)[C@H](Cc1cccc2ccccc12)NS(=O)(=O)c1cccc2cccnc12)B(O)O | 1.35 | 0.0385 µM and 0.125 µM | – | – | – | 0.000934 | > 100 | 0.23 µM and 0.109 µM | 0.0618 | 0.00488 µM | – | 0.00342 µM | 0.222 µM and 0.126 µM | – | 0.000296 | 0.109 µM | 0.0071 | 0.000542 | – | –
COc1cccc(CCC(=O)c2cc3c(N)c(C(=O)Nc4cccc(Cl)c4C)sc3nc2C)c1 | > 75.2 | > 100 µM | – | – | – | > 100 | > 100 | > 100 µM | 0.376 | 0.407 µM | – | 0.248 µM | 2.47 µM | – | 0.819 | 0.998 µM | 0.667 | 32.7 | 1.45 | –
C=C1CCCC2[C@](C)(CC3=C(O)C(=O)C=C(OC)C3=O)[C@@H](C)CC[C@]12C (some centres not stated) | 17.5 | 6.63 µM | 31.8 | 69.1 | 5.95 | 40.2 | > 100 | > 100 µM | – | – | – | – | – | – | – | – | – | – | – | –
CCNNC(=O)[C@@H]1[C@H](c2cc(OC)c(OC)c(OC)c2)c2cc3c(cc2[C@H](O)[C@H]1CO)OCO3 | > 100 | > 100 µM | – | – | – | > 100 | > 100 | > 100 µM | 0.343 | 0.398 µM | – | 0.211 µM | 0.703 µM | – | 0.407 | 0.519 µM | 0.449 | – | 0.311 | –
CCc1ccc2nccc(NCCCN(C)C)c2c1[N+](=O)[O-] | > 100 | > 100 µM | – | – | – | > 100 | > 100 | > 100 µM | – | – | – | – | > 100 µM | – | – | – | – | > 100 | – | –
CN(CC(=O)O)Cc1oc(CO)cc(=O)c1O | > 100 | > 100 µM | – | – | – | > 100 | > 100 | > 100 µM | – | – | – | – | > 100 µM | – | – | – | – | > 100 | – | –
Nc1ccc(C(OC(=O)c2cc3ccccc3c(Cc3c(O)c(C(=O)OC(c4ccc(N)cc4)(c4ccc(N)cc4)c4ccc(N)cc4)cc4ccccc34)c2O)(c2ccc(N)cc2)c2ccc(N)cc2)cc1 | 7.24 | 11.9 µM | – | – | – | > 100 | > 100 | 59.1 µM | 0.728 | 1.98 µM | – | 0.548 µM | 5.25 µM | – | 0.476 | 2.37 µM | 0.321 | 15.7 | 1.76 | –
O=c1oc2c3ccc4cnccc4c3[nH]c2c2ccccc12 | 30.2 | 42.1 µM | – | – | – | 33.4 | > 100 | 85.5 µM | 9.35 | 17.6 µM | – | 95.5 µM | > 100 µM | – | 7.94 | 76.5 µM | 19.3 | 72.6 | 26.6 | –
CS(=O)(=O)N(CCC#N)c1ccc(C=O)cc1 | > 100 | > 100 µM | > 100 | – | > 100 | > 100 | > 100 | > 100 µM | – | – | – | – | > 100 µM | – | – | – | – | > 100 | – | –
Nc1c(C(=O)N/N=C/c2ccc(-c3cc(Cl)c(Cl)cc3Cl)o2)cnn1-c1ccnc2c(C(F)(F)F)cccc12 | 16.9 | > 100 µM | – | – | – | > 100 | 49.1 | > 100 µM | 3.73 | 3.94 µM | – | 3.89 µM | 37.7 µM | – | 3.25 | 3.09 µM | 4.42 | > 100 | 5.62 | –
